Laboratory results from US12404285B2, “KRAS G12D proteolysis targeting chimeras” (PAQ Therapeutics Inc., priority 2022, dated 2025).

Target: T1, KRAS (G12D)-HiBit in AsPc-1-KRAS (G12D)-HiBit-KI cell (Homo sapiens, UniProt P01116, G12D)
T1 construct: host or cells: AsPc-1-KRAS (G12D)-HiBit-KI cells (knock-in line)
Test: G12D HiBit assay
Assay type: cell-based
Conditions: 24 hours compound treatment, absolute DC50, read-out: Average PHA DC50
How it was run: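 Degradation of endogenous HiBiT-tagged KRAS G12D in AsPc-1 knock-in cells read after 24 h compound exposure (0.015-300 nM, 3-fold steps) by Nano-Glo HiBiT lytic luminescence. Signal normalised to DMSO-only cells; absolute DC50 derived by curve fitting.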

T1 sequence (P01116 1-188 isoform P01116-2 G12D): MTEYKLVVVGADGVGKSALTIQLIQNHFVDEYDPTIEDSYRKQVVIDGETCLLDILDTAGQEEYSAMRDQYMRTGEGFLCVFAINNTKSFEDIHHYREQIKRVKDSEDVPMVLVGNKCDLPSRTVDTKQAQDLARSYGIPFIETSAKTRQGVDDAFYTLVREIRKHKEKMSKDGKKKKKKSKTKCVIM

Structure (SMILES) | DC50 [nM]
C#Cc1c(F)ccc2cccc(-c3ncc4c(N5CC6CCC(C5)N6)nc(OC[C@@]56CCCN5[C@H](COC(=O)N5CCC(CN(C)C7CCN(c8cccc9c8n(C)c(=O)n9C8CCC(=O)NC8=O)CC7)CC5)CC6)nc4c3F)c12 (stereo partly drawn) [Compound 108, [(3S,8S)-8-[[4-(3,8-Diazabicyclo[3.2.1]octan-3-yl)-7-(8-ethynyl-7-fluoro-1-naphthyl)-8-fluoro-pyrido[4,3-d]pyrimidin-2-yl]oxymethyl]-1,2,3,5,6,7-hexahydropyrrolizin-3-yl]methyl4-[[[1-[1-(2,6-dioxo-3-piperidyl)-3-methyl-2-oxo-benzimidazol-4-yl]-4-piperidyl]-methyl-amino]methyl]piperidine-1-carboxylate] | < 100
C#Cc1c(F)ccc2cccc(-c3ncc4c(N5CC6CCC(C5)N6)nc(OC[C@@]56CCCN5[C@H](COC(=O)NCCCN(C)C5CCN(c7cccc8c7n(C)c(=O)n8C7CCC(=O)NC7=O)CC5)CC6)nc4c3F)c12 (stereo partly drawn) [Compound 109, [(3S,8S)-8-[[4-(3,8-Diazabicyclo[3.2.1]octan-3-yl)-7-(8-ethynyl-7-fluoro-1-naphthyl)-8-fluoro-pyrido[4,3-d]pyrimidin-2-yl]oxymethyl]-1,2,3,5,6,7-hexahydropyrrolizin-3-yl]methylN-[3-[[1-[1-(2,6-dioxo-3-piperidyl)-3-methyl-2-oxo-benzimidazol-4-yl]-4-piperidyl]-methyl-amino]propyl]carbamate] | ≥ 300
C#Cc1c(F)ccc2cccc(-c3ncc4c(N5CC6CCC(C5)N6)nc(OC[C@@]56CCCN5[C@H](COC(=O)NCCCC(=O)N5CCN(c7cccc8c7n(C)c(=O)n8C7CCC(=O)NC7=O)CC5)CC6)nc4c3F)c12 (stereo partly drawn) [Compound 110, ((3S,7aS)-7a-(((4-((1R,5S)-3,8-Diazabicyclo[3.2.1]octan-3-yl)-7-(8-ethynyl-7-fluoronaphthalen-1-yl)-8-fluoropyrido[4,3-d]pyrimidin-2-yl)oxy)methyl)hexahydro-1H-pyrrolizin-3-yl)methyl(4-(4-(1-(2,6-dioxopiperidin-3-yl)-3-methyl-2-oxo-2,3-dihydro-1H-benzo[d]imidazol-4-yl)piperazin-1-yl)-4-oxobutyl)carbamate] | ≥ 300
C#Cc1c(F)ccc2cccc(-c3ncc4c(N5CC6CCC(C5)N6)nc(OC[C@@]56CCCN5[C@H](COC(=O)N5CCO[C@@H](CN7CCN(c8cccc9c8n(C)c(=O)n9C8CCC(=O)NC8=O)CC7)C5)CC6)nc4c3F)c12 (stereo partly drawn) [Compound 111, [(3S,8S)-8-[[4-(3,8-Diazabicyclo[3.2.1]octan-3-yl)-7-(8-ethynyl-7-fluoro-1-naphthyl)-8-fluoro-pyrido[4,3-d]pyrimidin-2-yl]oxymethyl]-1,2,3,5,6,7-hexahydropyrrolizin-3-yl]methyl (2S)-2-[[4-[1-(2,6-dioxo-3-piperidyl)-3-methyl-2-oxo-benzimidazol-4-yl]piperazin-1-yl]methyl]morpholine-4-carboxylate-2,6-dione] | < 100
C#Cc1c(F)ccc2cccc(-c3ncc4c(N5CC6CCC(C5)N6)nc(OC[C@@]56CCCN5[C@H](COC(=O)N5CCC(CN7CCN(c8cccc9c8n(C)c(=O)n9C8CCC(=O)NC8=O)CC7)CC5)CC6)nc4c3F)c12 (stereo partly drawn) [Compound 112, [(3S,8S)-8-[[4-(3,8-Diazabicyclo[3.2.1]octan-3-yl)-7-(8-ethynyl-7-fluoro-1-naphthyl)-8-fluoro-pyrido[4,3-d]pyrimidin-2-yl]oxymethyl]-1,2,3,5,6,7-hexahydropyrrolizin-3-yl]methyl 4-[[4-[1-(2,6-dioxo-3-piperidyl)-3-methyl-2-oxo-benzimidazol-4-yl]piperazin-1-yl]methyl]piperidine-1-carboxylate] | < 100
C#Cc1c(F)ccc2cccc(-c3ncc4c(N5CC6CCC(C5)N6)nc(OC[C@@]56CCCN5[C@H](COC(=O)N5CC(CN7CCN(c8cccc9c8n(C)c(=O)n9C8CCC(=O)NC8=O)CC7)C5)CC6)nc4c3F)c12 (stereo partly drawn) [Compound 113, [(3S,8S)-8-[[4-(3,8-Diazabicyclo[3.2.1]octan-3-yl)-7-(8-ethynyl-7-fluoro-1-naphthyl)-8-fluoro-pyrido[4,3-d]pyrimidin-2-yl]oxymethyl]-1,2,3,5,6,7-hexahydropyrrolizin-3-yl]methyl 3-[[4-[1-(2,6-dioxo-3-piperidyl)-3-methyl-2-oxo-benzimidazol-4-yl]piperazin-1-yl]methyl]azetidine-1-carboxylate] | 100 to 300
C#Cc1c(F)ccc2cccc(-c3ncc4c(N5CC6CCC(C5)N6)nc(OC[C@@]56CCCN5[C@H](COC(=O)N5CCC(OCCCC#Cc7ccc8c(c7)n(C)c(=O)n8C7CCC(=O)NC7=O)CC5)CC6)nc4c3F)c12 (stereo partly drawn) [Compound 114, [(3S,8S)-8-[[4-(3,8-Diazabicyclo[3.2.1]octan-3-yl)-7-(8-ethynyl-7-fluoro-1-naphthyl)-8-fluoro-pyrido[4,3-d]pyrimidin-2-yl]oxymethyl]-1,2,3,5,6,7-hexahydropyrrolizin-3-yl]methyl 4-[5-[1-(2,6-dioxo-3-piperidyl)-3-methyl-2-oxo-benzimidazol-5-yl]pent-4-ynoxy]piperidine-1-carboxylate] | < 100
C#Cc1c(F)ccc2cccc(-c3ncc4c(N5CC6CCC(C5)N6)nc(OC[C@@]56CCCN5[C@H](COC(=O)N5CCC(OCc7ccc8c(c7)n(C)c(=O)n8C7CCC(=O)NC7=O)CC5)CC6)nc4c3F)c12 (stereo partly drawn) [Compound 116, [(3S,8S)-8-[[4-(3,8-Diazabicyclo[3.2.1]octan-3-yl)-7-(8-ethynyl-7-fluoro-1-naphthyl)-8-fluoro-pyrido[4,3-d]pyrimidin-2-yl]oxymethyl]-1,2,3,5,6,7-hexahydropyrrolizin-3-yl]methyl4-[[1-(2,6-dioxo-3-piperidyl)-3-methyl-2-oxo-benzimidazol-5-yl]methoxy]piperidine-1-carboxylate] | ≥ 300
C#Cc1c(F)ccc2cccc(-c3ncc4c(N5CC6CCC(C5)N6)nc(OC[C@@]56CCCN5[C@H](COC(=O)N5CCC(OCCCCc7cccc8c7n(C)c(=O)n8C7CCC(=O)NC7=O)CC5)CC6)nc4c3F)c12 (stereo partly drawn) [Compound 117, [(3S,8S)-8-[[4-(3,8-Diazabicyclo[3.2.1]octan-3-yl)-7-(8-ethynyl-7-fluoro-1-naphthyl)-8-fluoro-pyrido[4,3-d]pyrimidin-2-yl]oxymethyl]-1,2,3,5,6,7-hexahydropyrrolizin-3-yl]methyl4-[4-[1-(2,6-dioxo-3-piperidyl)-3-methyl-2-oxo-benzimidazol-4-yl]butoxy]piperidine-1-carboxylate] | < 100
C#Cc1c(F)ccc2cccc(-c3ncc4c(N5CC6CCC(C5)N6)nc(OC[C@@]56CCCN5[C@H](COC(=O)N5CCC(OCCCCCc7ccc8c(c7)n(C)c(=O)n8C7CCC(=O)NC7=O)CC5)CC6)nc4c3F)c12 (stereo partly drawn) [Compound 120, [(3S,8S)-8-[[4-(3,8-Diazabicyclo[3.2.1]octan-3-yl)-7-(8-ethynyl-7-fluoro-1-naphthyl)-8-fluoro-pyrido[4,3-d]pyrimidin-2-yl]oxymethyl]-1,2,3,5,6,7-hexahydropyrrolizin-3-yl]methyl 4-[5-[1-(2,6-dioxo-3-piperidyl)-3-methyl-2-oxo-benzimidazol-5-yl]pentoxy]piperidine-1-carboxylate] | < 100
C#Cc1c(F)ccc2cccc(-c3ncc4c(N5CC6CCC(C5)N6)nc(OC[C@@]56CCCN5[C@H](COC(=O)N5CC7(CCN(c8cccc9c8n(C)c(=O)n9C8CCC(=O)NC8=O)CC7)C5)CC6)nc4c3F)c12 (stereo partly drawn) [Compound 121, [(3S,8S)-8-[[4-(3,8-Diazabicyclo[3.2.1]octan-3-yl)-7-(8-ethynyl-7-fluoro-1-naphthyl)-8-fluoro-pyrido[4,3-d]pyrimidin-2-yl]oxymethyl]-1,2,3,5,6,7-hexahydropyrrolizin-3-yl]methyl 7-[1-(2,6-dioxo-3-piperidyl)-3-methyl-2-oxo-benzimidazol-4-yl]-2,7-diazaspiro[3.5]nonane-2-carboxylate] | ≥ 300
C#Cc1c(F)ccc2cccc(-c3ncc4c(N5CC6CCC(C5)N6)nc(OC[C@@]56CCCN5[C@H](COC(=O)N5CCC(OCCCCCc7cccc8c7n(C)c(=O)n8C7CCC(=O)NC7=O)CC5)CC6)nc4c3F)c12 (stereo partly drawn) [Compound 122, [(3S,8S)-8-[[4-(3,8-diazabicyclo[3.2.1]octan-3-yl)-7-(8-ethynyl-7-fluoro-1-naphthyl)-8-fluoro-pyrido[4,3-d]pyrimidin-2-yl]oxymethyl]-1,2,3,5,6,7-hexahydropyrrolizin-3-yl]methyl4-[5-[1-(2,6-dioxo-3-piperidyl)-3-methyl-2-oxo-benzimidazol-4-yl]pentoxy]piperidine-1-carboxylate] | < 100
C#Cc1c(F)ccc2cccc(-c3ncc4c(N5CC6CCC(C5)N6)nc(OC[C@@]56CCCN5[C@H](COC(=O)NCCOCCN5CCN(c7cccc8c7n(C)c(=O)n8C7CCC(=O)NC7=O)CC5)CC6)nc4c3F)c12 (stereo partly drawn) [Compound 123, [(3S,8S)-8-[[4-(3,8-diazabicyclo[3.2.1]octan-3-yl)-7-(8-ethynyl-7-fluoro-1-naphthyl)-8-fluoro-pyrido[4,3-d]pyrimidin-2-yl]oxymethyl]-1,2,3,5,6,7-hexahydropyrrolizin-3-yl]methyl N-[2-[2-[4-[1-(2,6-dioxo-3-piperidyl)-3-methyl-2-oxo-benzimidazol-4-yl]piperazin-1-yl]ethoxy]ethyl]carbamate] | ≥ 300
C#Cc1c(F)ccc2cccc(-c3ncc4c(N5CC6CCC(C5)N6)nc(OC[C@@]56CCCN5[C@H](COC(=O)N5CCC7(CC5)CC(CCc5cccc8c5n(C)c(=O)n8C5CCC(=O)NC5=O)C7)CC6)nc4c3F)c12 (stereo partly drawn) [Compound 124, [(3S,8S)-8-[[4-(3,8-Diazabicyclo[3.2.1]octan-3-yl)-7-(8-ethynyl-7-fluoro-1-naphthyl)-8-fluoro-pyrido[4,3-d]pyrimidin-2-yl]oxymethyl]-1,2,3,5,6,7-hexahydropyrrolizin-3-yl]methyl 2-[2-[1-(2,6-dioxo-3-piperidyl)-3-methyl-2-oxo-benzimidazol-4-yl]ethyl]-7-azaspiro[3.5]nonane-7-carboxylate] | < 100
